Laboratory results as given in the NIST ThermoML archive (doi:10.1021/je700546r).
Several values for one entry are separate records, joined by “and”; a condition that tells them apart may be missing. Identical values can stand only once.

Assay: molar heat capacity at saturation pressure
Conditions: Small (less than 1 g) adiabatic calorimetry

ON=C1CCCCC1 [cyclohexanone oxime]
Conditions	molar heat capacity
224.01 K, Crystal 3	136.62 J/K/mol
224.62 K, Crystal 3	137.24 J/K/mol
224.76 K, Crystal 3	137.52 J/K/mol
225.92 K, Crystal 3	138.42 J/K/mol
226.48 K, Crystal 3	138.92 J/K/mol
226.5 K, Crystal 3	139.12 J/K/mol
227.85 K, Crystal 3	140.09 J/K/mol
228.24 K, Crystal 3	140.6 J/K/mol
228.33 K, Crystal 3	140.45 J/K/mol
229.78 K, Crystal 3	141.6 J/K/mol
229.98 K, Crystal 3	141.91 J/K/mol
230.18 K, Crystal 3	141.86 J/K/mol
231.71 K, Crystal 3	143.03 J/K/mol and 143.15 J/K/mol
232.03 K, Crystal 3	143.15 J/K/mol
233.43 K, Crystal 3	144.26 J/K/mol
233.64 K, Crystal 3	144.32 J/K/mol
233.87 K, Crystal 3	144.33 J/K/mol
235.14 K, Crystal 3	145.41 J/K/mol
235.57 K, Crystal 3	145.51 J/K/mol
235.71 K, Crystal 3	145.65 J/K/mol
236.85 K, Crystal 3	146.62 J/K/mol
237.5 K, Crystal 3	146.68 J/K/mol
237.54 K, Crystal 3	146.94 J/K/mol
238.56 K, Crystal 3	147.84 J/K/mol
239.36 K, Crystal 3	148.9 J/K/mol
239.43 K, Crystal 3	148.81 J/K/mol
239.79 K, Crystal 3	150.04 J/K/mol
241.18 K, Crystal 3	153.75 J/K/mol
241.36 K, Crystal 3	153.6 J/K/mol
241.48 K, Crystal 3	154.07 J/K/mol
242.99 K, Crystal 2	148.41 J/K/mol
243.3 K, Crystal 2	148.43 J/K/mol
243.42 K, Crystal 2	148.52 J/K/mol
244.82 K, Crystal 2	149.34 J/K/mol
245.25 K, Crystal 2	149.53 J/K/mol
245.37 K, Crystal 2	149.83 J/K/mol
246.66 K, Crystal 2	150.69 J/K/mol
247.07 K, Crystal 2	151.16 J/K/mol
247.18 K, Crystal 2	150.98 J/K/mol
248.48 K, Crystal 2	152.19 J/K/mol
248.78 K, Crystal 2	152.63 J/K/mol
250.29 K, Crystal 2	153.82 J/K/mol
250.48 K, Crystal 2	154.01 J/K/mol
252.11 K, Crystal 2	155.49 J/K/mol
252.36 K, Crystal 2	155.81 J/K/mol
253.91 K, Crystal 2	157.22 J/K/mol
254.12 K, Crystal 2	157.42 J/K/mol
255.71 K, Crystal 2	159 J/K/mol
255.8 K, Crystal 2	159.11 J/K/mol
257.47 K, Crystal 2	160.79 J/K/mol
257.5 K, Crystal 2	160.82 J/K/mol
259.14 K, Crystal 2	162.49 J/K/mol
259.28 K, Crystal 2	162.64 J/K/mol
260.8 K, Crystal 2	164.29 J/K/mol
261.05 K, Crystal 2	164.53 J/K/mol
262.46 K, Crystal 2	166.09 J/K/mol
262.82 K, Crystal 2	166.41 J/K/mol
264.11 K, Crystal 2	167.84 J/K/mol
264.58 K, Crystal 2	168.33 J/K/mol
265.75 K, Crystal 2	169.58 J/K/mol
266.34 K, Crystal 2	170.21 J/K/mol
267.39 K, Crystal 2	171.43 J/K/mol
268.08 K, Crystal 2	172.13 J/K/mol
269.02 K, Crystal 2	173.27 J/K/mol
269.82 K, Crystal 2	174.08 J/K/mol
270.64 K, Crystal 2	175.04 J/K/mol
271.56 K, Crystal 2	175.95 J/K/mol
272.26 K, Crystal 2	176.79 J/K/mol
273.28 K, Crystal 2	177.73 J/K/mol
273.87 K, Crystal 2	178.52 J/K/mol
275.02 K, Crystal 2	179.53 J/K/mol
275.47 K, Crystal 2	180.26 J/K/mol
276.74 K, Crystal 2	181.37 J/K/mol
277.08 K, Crystal 2	181.92 J/K/mol
278.45 K, Crystal 2	183.01 J/K/mol
278.67 K, Crystal 2	183.43 J/K/mol
280.15 K, Crystal 2	184.62 J/K/mol
280.26 K, Crystal 2	185.03 J/K/mol
281.85 K, Crystal 2	186.12 J/K/mol and 186.38 J/K/mol
283.43 K, Crystal 2	187.69 J/K/mol
283.54 K, Crystal 2	187.5 J/K/mol
285.01 K, Crystal 2	188.93 J/K/mol
285.24 K, Crystal 2	188.79 J/K/mol
286.58 K, Crystal 2	189.97 J/K/mol
286.93 K, Crystal 2	189.9 J/K/mol
288.15 K, Crystal 2	191 J/K/mol
288.61 K, Crystal 2	190.97 J/K/mol
289.72 K, Crystal 2	191.92 J/K/mol
290.29 K, Crystal 2	191.83 J/K/mol
291.28 K, Crystal 2	192.69 J/K/mol
291.97 K, Crystal 2	192.78 J/K/mol
292.14 K, Crystal 2	192.79 J/K/mol
292.85 K, Crystal 2	193.59 J/K/mol
293.65 K, Crystal 2	193.64 J/K/mol
293.7 K, Crystal 2	193.66 J/K/mol
294.41 K, Crystal 2	194.19 J/K/mol
295.26 K, Crystal 2	194.41 J/K/mol
295.32 K, Crystal 2	194.51 J/K/mol
295.97 K, Crystal 2	194.99 J/K/mol
296.81 K, Crystal 2	195.24 J/K/mol
297 K, Crystal 2	195.34 J/K/mol
297.53 K, Crystal 2	195.76 J/K/mol
298.36 K, Crystal 2	196.04 J/K/mol
298.66 K, Crystal 2	196.34 J/K/mol
299.09 K, Crystal 2	196.66 J/K/mol
299.91 K, Crystal 2	197.34 J/K/mol
300.33 K, Crystal 2	197.85 J/K/mol
300.64 K, Crystal 2	198.3 J/K/mol
301.45 K, Crystal 2	198.75 J/K/mol
301.99 K, Crystal 1	196.75 J/K/mol
302.19 K, Crystal 1	195.88 J/K/mol
